Assay [1] deals with Human platelet aggregation caused by ADP. As to the kind of experiment: Inhibition of ADP-induced platelet aggregation (Mimic-human PRP). It counts as cell-based. As to conditions: 20 μM ADP, human platelet concentrate diluted with PPP, absorption at 595 nm. In a few lines: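 Human PRP diluted with PPP to 3–4×10^8 platelets/mL was preincubated 20 min at room temperature with compound (0.01–30 μM, DMSO), then stimulated with 20 μM ADP. Aggregation read as A595 increase at 3 min versus 0 and 20 μM ADP controls; Ki from sigmoidal non-linear regression.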

The next assay has as its target T1, Human P2Y12 receptor (Homo sapiens, UniProt Q9H244).
T1 construct: expressed in transfected cells; host or cells: HEK cells
As to the kind of experiment: Human P2Y12 receptor cell membrane binding assay with [3H] 2-Mes-ADP. As to conditions: 1 nM [3H] 2-Mes-ADP, membranes of HEK cells expressing P2Y12 receptor; read-out: Binding activity (IC50). The gist of the method:
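Membranes from HEK cells expressing human P2Y12 were incubated with compound and 1 nM [3H]2-MeS-ADP for 1 h at room temperature. Bound radioactivity was collected by GF/B filtration.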

Our source for the Ki and IC50 values is patent publication US20110166121A1 (LG LIFE SCIENCES LTD., priority 2008, published 2011).

T1 sequence (Q9H244 whole entry): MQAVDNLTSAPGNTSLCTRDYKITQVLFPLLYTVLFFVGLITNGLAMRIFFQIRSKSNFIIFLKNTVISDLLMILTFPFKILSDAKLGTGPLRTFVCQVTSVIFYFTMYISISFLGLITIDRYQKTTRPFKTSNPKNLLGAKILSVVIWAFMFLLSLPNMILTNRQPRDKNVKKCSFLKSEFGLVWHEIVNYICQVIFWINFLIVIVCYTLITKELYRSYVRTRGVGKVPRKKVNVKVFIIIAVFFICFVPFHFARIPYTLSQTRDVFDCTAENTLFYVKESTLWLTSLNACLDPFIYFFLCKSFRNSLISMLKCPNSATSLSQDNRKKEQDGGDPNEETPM

Regarding `CCCc1cc2c(N3CCn4c(nnc4C(F)(F)F)C3)nc(OCCNC(=O)CN)nc2s1` [Example 3-65, 2-Amino-N-{2-[6-propyl-4-(3-trifluoromethyl-5,6-dihydro-8H-[1,2,4]triazolo[4,3-a]pyrazin-7-yl)-thieno[2,3-d]pyrimidin-2-yloxy]-ethyl}-acetamide], the Ki in assay [1] stood at 13 nM. On Human P2Y12 receptor, the IC50 was determined as 180 nM.

For the molecule `CCCc1cc2c(N3CCn4c(nnc4C(F)(F)F)C3)nc(OCCNC(=O)CS(C)(=O)=O)nc2s1` [Example 3-66, 2-Methanesulfonyl-N-{2-[6-propyl-4-(3-trifluoromethyl-5,6-dihydro-8H-[1,2,4]triazolo[4,3-a]pyrazin-7-yl)-thieno[2,3-d]pyrimidin-2-yloxy]-ethyl}-acetamide], in assay [1], the Ki came out at 70 nM. Moreover, the IC50 on Human P2Y12 receptor came out at 150 nM.

Take `CCCc1cc2c(N3CCn4c(nnc4C(F)(F)F)C3)nc(OCCNC(=O)CCCS(N)(=O)=O)nc2s1` [Example 3-67, N-{2-[6-Propyl-4-(3-trifluoromethyl-5,6-dihydro-8H-[1,2,4]triazolo[4,3-a]pyrazin-7-yl)-thieno[2,3-d]pyrimidin-2-yloxy]-ethyl}-4-sulfamoyl-butyramide]: affinity in assay [1] was put at a Ki of 17 nM. In addition, the concentration for half-maximal inhibition (IC50) at Human P2Y12 receptor came out at 90 nM.

In the case of `CCCc1cc2c(N3CCn4c(nnc4C(F)(F)F)C3)nc(OCCNS(=O)(=O)C3CC3)nc2s1` [Example 3-68, Cyclopropanesulfonic Acid {2-[6-propyl-4-(3-trifluoromethyl-5,6-dihydro-8H-[1,2,4]triazolo[4,3-a]pyrazin-7-yl)-thieno[2,3-d]pyrimidin-2-yloxy]-ethyl}-amide], affinity in assay [1] was put at a Ki of 120 nM. The IC50 at Human P2Y12 receptor was found to be 140 nM.

In the case of `CCCc1cc2c(N3CCn4c(nnc4C(F)(F)F)C3)nc(OCCNS(=O)(=O)C(F)(F)F)nc2s1` [Example 3-69, C,C,C-Trifluoro-N-{2-[6-propyl-4-(3-trifluoromethyl-5,6-dihydro-8H-[1,2,4]triazolo[4,3-a]pyrazin-7-yl)-thieno[2,3-d]pyrimidin-2-yloxy]-ethyl}-methanesulfonamide], the Ki in assay [1] was determined as 4100 nM. Besides, the IC50 on Human P2Y12 receptor was found to be 180 nM.

In turn, `CCCc1cc2c(N3CCn4c(nnc4C(F)(F)F)C3)nc(OCCNC(=O)c3ccccn3)nc2s1` [Example 3-70, Pyridine-2-carboxylic acid {2-[6-propyl-4-(3-trifluoromethyl-5,6-dihydro-8H-[1,2,4]triazolo[4,3-a]pyrazin-7-yl)-thieno[2,3-d]pyrimidin-2-yloxy]-ethyl}-amide] gave a Ki in assay [1] of 7 nM. In addition, the IC50 at Human P2Y12 receptor is 17 nM.

In the case of `CCCc1cc2c(N3CCn4c(nnc4C(F)(F)F)C3)nc(C(N)=O)nc2s1` [Example 4-3, 6-Propyl-4-(3-trifluoromethyl-5,6-dihydro-8H-[1,2,4]triazolo[4,3-a]pyrazin-7-yl)-thieno[2,3-d]pyrimidine-2-carboxylic acid amide], the Ki in assay [1] is 120 nM. Moreover, at Human P2Y12 receptor, the IC50 turned out to be 630 nM.

In assay [1], `CCCc1cc2c(N3CCn4c(nnc4C(F)(F)F)C3)nc(C(=O)NCCC(=O)OCC)nc2s1` [Example 4-6, 3-{[6-Propyl-4-(3-trifluoromethyl-5,6-dihydro-8H-[1,2,4]triazolo[4,3-a]pyrazin-7-yl)thieno[2,3-d]pyrimidine-2-carbonyl]amino}propionic acid ethyl ester] gave a Ki of 1200 nM. Also, the IC50 at Human P2Y12 receptor came to 2890 nM.

In the case of `CCCc1cc2c(N3CCn4c(nnc4C(F)(F)F)C3)nc(C(=O)NCCC(=O)O)nc2s1` [Example 4-7, 3-{[6-Propyl-4-(3-trifluoromethyl-5,6-dihydro-8H-[1,2,4]triazolo[4,3-a]pyrazin-7-yl)thieno[2,3-d]pyrimidine-2-carbonyl]amino}propionic acid], the affinity in assay [1], expressed as Ki, was 320 nM. The IC50 at Human P2Y12 receptor is 620 nM.

Molecule `CCCc1cc2c(N3CCn4c(nnc4C(F)(F)F)C3)nc(C(=O)NCC(=O)OCC)nc2s1` [Example 4-8, {[6-Propyl-4-(3-trifluoromethyl-5,6-dihydro-8H-[1,2,4]triazolo[4,3-a]pyrazin-7-yl)thieno[2,3-d]pyrimidine-2-carbonyl]amino}acetic acid ethyl ester] displayed a Ki in assay [1] of 550 nM. At Human P2Y12 receptor, the IC50 was determined as 470 nM.

Take `CCCc1cc2c(N3CCn4c(nnc4C(F)(F)F)C3)nc(C(=O)NCC(=O)O)nc2s1` [Example 4-9, {[6-Propyl-4-(3-trifluoromethyl-5,6-dihydro-8H-[1,2,4]triazolo[4,3-a]pyrazin-7-yl)thieno[2,3-d]pyrimidine-2-carbonyl]amino}acetic acid]: the Ki in assay [1] came out at 5100 nM. Also, at Human P2Y12 receptor, the IC50 amounted to 1100 nM.

Regarding `CCCc1cc2c(N3CCn4c(nnc4C(F)(F)F)C3)nc(C(=O)NCC(O)CO)nc2s1` (stereo not drawn) [Example 4-10, 6-Propyl-4-(3-trifluoromethyl-5,6-dihydro-8H-[1,2,4]triazolo[4,3-a]pyrazin-7-yl)thieno[2,3-d]pyrimidine-2-carboxylic acid (2,3-dihydroxy-propyl)amide], in assay [1], the Ki amounted to 200 nM. Also, the 50% inhibitory concentration (IC50) at Human P2Y12 receptor was 1550 nM.

In turn, `CCCc1cc2c(N3CCn4c(nnc4C(F)(F)F)C3)nc(C(=O)NCCC#N)nc2s1` [Example 4-11, 6-Propyl-4-(3-trifluoromethyl-5,6-dihydro-8H-[1,2,4]triazolo[4,3-a]pyrazin-7-yl)thieno[2,3-d]pyrimidine-2-carboxylic acid (2-cyanoethyl)amide] displayed a Ki in assay [1] of 600 nM. Moreover, the IC50 at Human P2Y12 receptor is 660 nM.

As for `CCCc1cc2c(N3CCn4c(nnc4C(F)(F)F)C3)nc(C(=O)N3CCC(O)C3)nc2s1` (stereo not drawn) [Example 4-12, (3-Hydroxy-pyrrolidin-1-yl)-[6-propyl-4-(3-trifluoromethyl-5,6-dihydro-8H-[1,2,4]triazolo[4,3-a]pyrazin-7-yl)thieno[2,3-d]pyrimidin-2-yl]methanon], the Ki in assay [1] was 95 nM. In addition, the IC50 at Human P2Y12 receptor is 1100 nM.

Take `CCCc1cc2c(N3CCn4c(nnc4C(F)(F)F)C3)nc(C(=O)N3CCN(C)CC3)nc2s1` [Example 4-13, (4-Methyl-piperazin-1-yl)-[6-propyl-4-(3-trifluoromethyl-5,6-dihydro-8H-[1,2,4]triazolo[4,3-a]pyrazin-7-yl)thieno[2,3-d]pyrimidin-2-yl]methanone]: in assay [1], the Ki turned out to be 1800 nM. The IC50 at Human P2Y12 receptor turned out to be 4920 nM.

In assay [1], `CCCc1cc2c(N3CCn4c(nnc4C(F)(F)F)C3)nc(C(=O)N3CCCC(C(=O)OCC)C3)nc2s1` (stereo not drawn) [Example 4-14, 1-[6-Propyl-4-(3-trifluoromethyl-5,6-dihydro-8H-[1,2,4]triazolo[4,3-a]pyrazin-7-yl)thieno[2,3-d]pyrimidine-2-carbonyl]piperidine-3-carboxylic acid ethyl ester] had a Ki of 460 nM. The IC50 at Human P2Y12 receptor is 1290 nM.

Molecule `CCCc1cc2c(N3CCn4c(nnc4C(F)(F)F)C3)nc(C(=O)N3CCCC(C(=O)O)C3)nc2s1` (stereo not drawn) [Example 4-15, 1-[6-Propyl-4-(3-trifluoromethyl-5,6-dihydro-8H-[1,2,4]triazolo[4,3-a]pyrazin-7-yl)thieno[2,3-d]pyrimidine-2-carbonyl]piperidine-3-carboxylic acid] showed a Ki in assay [1] of 690 nM. In addition, at Human P2Y12 receptor, the IC50 was 630 nM.

With `CCCc1cc2c(N3CCn4c(nnc4C(F)(F)F)C3)nc(C(=O)Nc3ccccc3)nc2s1` [Example 4-16, 6-Propyl-4-(3-trifluoromethyl-5,6-dihydro-8H-[1,2,4]triazolo[4,3-a]pyrazin-7-yl)-thieno[2,3-d]pyrimidine-2-carboxylic acid phenylamide], the Ki in assay [1] is above 4000 nM. Moreover, on Human P2Y12 receptor, the IC50 stood at 650 nM.

`CCCc1cc2c(N3CCn4c(nnc4C(F)(F)F)C3)nc(C(=O)NCc3ccccc3)nc2s1` [Example 4-17, 6-Propyl-4-(3-trifluoromethyl-5,6-dihydro-8H-[1,2,4]triazolo[4,3-a]pyrazin-7-yl)thieno[2,3-d]pyrimidine-2-carboxylic acid benzylamide]: the affinity in assay [1], expressed as Ki, was 1600 nM. For the same molecule, on Human P2Y12 receptor, the IC50 is 210 nM.

In assay [1], `CCc1cc2c(N3CCn4c(nnc4C(F)(F)F)C3)nc(CO)nc2s1` [Example 4-18, [6-Ethyl-4-(3-trifluoromethyl-5,6-dihydro-8H-[1,2,4]triazolo[4,3-a]pyrazin-7-yl)thieno[2,3-d]pyrimidin-2-yl]methanol] returned a Ki of 1600 nM. In addition, the IC50 on Human P2Y12 receptor was 1530 nM.

The molecule `CCCc1cc2c(N3CCn4c(nnc4C(F)(F)F)C3)nc(CO)nc2s1` [Example 4-19, [6-Propyl-4-(3-trifluoromethyl-5,6-dihydro-8H-[1,2,4]triazolo[4,3-a]pyrazin-7-yl)-thieno[2,3-d]pyrimidin-2-yl]methanol] returned a Ki in assay [1] of 250 nM. Also, on Human P2Y12 receptor, the IC50 came out at 500 nM.

`CCCc1cc2c(N3CCn4c(nnc4C(F)(F)F)C3)nc(CN3CC[C@@H](O)C3)nc2s1` [Example 4-21, (R)-1-[6-Propyl-4-(3-trifluoromethyl-5,6-dihydro-8H-[1,2,4]triazolo[4,3-a]pyrazin-7-yl)thieno[2,3-d]pyrimidin-2-ylmethyl]pyrrolidin-3-ol] displayed a Ki in assay [1] of 140 nM. Moreover, on Human P2Y12 receptor, the IC50 was determined as 1110 nM.

As to `CCCc1cc2c(N3CCn4c(nnc4C(F)(F)F)C3)nc(COC(=O)c3ccccc3)nc2s1` [Example 4-22, Benzoic Acid 6-propyl-4-(3-trifluoromethyl-5,6-dihydro-8H-[1,2,4]triazolo[4,3-a]pyrazin-7-yl)thieno[2,3-d]pyrimidin-2-ylmethyl ester], the Ki in assay [1] worked out at 1600 nM. The IC50 at Human P2Y12 receptor came to 850 nM.

In the case of `CCCc1cc2c(N3CCn4c(nnc4C(F)(F)F)C3)nc(COc3ccccc3)nc2s1` [Example 4-23, 7-(2-Phenoxymethyl-6-propyl-thieno[2,3-d]pyrimidin-4-yl)-3-trifluoromethyl-5,6,7,8-tetrahydro-[1,2,4]triazolo[4,3-a]pyrazine], the Ki in assay [1] stood at 6850 nM. In addition, the IC50 on Human P2Y12 receptor was found to be 420 nM.

Usually Ki stands for the equilibrium dissociation constant of an inhibitor or competing ligand from its target. High values mean lower affinity, low ones higher affinity. Broadly, the IC50 is the concentration at which inhibition is half-maximal.
